In patent US9718785B2, “1,3-Disubstituted cyclopentane derivatives” (MERCK PATENT GMBH, priority 2013, dated 2017):

Molecular target: T1, human recombinant full-length fatty acid synthase (FASN) (Homo sapiens, UniProt P49327)
T1 construct: 40 nM human recombinant full-length fatty acid synthase (produced in-house in SF9 cells); made in house; host or cells: SF9 insect cells
Assay: Biochemical activity testing of human fatty acid synthase FASN (NADPH fluorescence intensity enzyme assay)
Details: human recombinant FASN, enzyme assay
Text: Biochemical Activity Testing of Human Fatty Acid Synthase FASN
Fatty acid synthase FASN is a multifunctional enzyme with seven catalytic activities thereby synthesising long chain fatty acids especially palmitoyl-CoA in the presence of co-factor NADPH starting from the substrates acetyl-CoA and malonyl-CoA. The reductive synthesis is realized by the oxidation of NADPH to NADP. Since NADPH has a high fluorescence intensity quantum yield compared to NADP with excitation at 340 nm and emission at 460 nm, the reaction can be monitored via the decrease in fluorescence intensity. The biochemical FASN activity testing was performed as 384 well two-time-point kinetic fluorescence intensity assay format in Greiner low volume medium binding 384-well black microtiter plates in a total assay volume of 8 μl and was used for high throughput screen. In each well 3 μl 40 nM human recombinant full-length fatty acid synthase (produced in-house in SF9 cells) were dispensed in the following assay buffer: 50 mM potassium phosphate buffer pH 7.0, 0.005% (w/v) BSA, 2 mM Glutathione, 0.02% Tween-20. Then 2 μl of 200 μM NADPH in assay buffer were added, followed by the addition of the test compounds in 10 dilution concentrations starting with 30 μM (final concentration) to get a final DMSO content of 1% (v/v). The mixture was incubated for at least 15 min at room temperature. After the pre-incubation the enzymatic reaction was started by the addition of 2 μl substrate solution (80 μM acetyl-CoA, 240 μM malonyl-CoA). A first fluorescence intensity measurement (time point one) was performed with an Envision multimode reader (Perkin Elmer LAS Germany GmbH) at excitation wavelength 340 nm (lamp mode) and emission wavelength 460 nm. The reaction was incubated for 30 minutes at room temperature. After this the fluorescence intensity was measured again in the Envision using the same parameters as described above (second time point measurement). The data were analysed by subtracting the first time point measurement value from the second time point measurement value (after the enzymatic reaction). The differences of the emission signals were determined. These reflect directly the conversion rate of NADPH. The full value used was the inhibitor-free reaction. A pharmacological zero value was used like GSK837149A (Sigma-Aldrich) in a final concentration of 5-10 μM. The inhibitory values (IC50) were determined using either the program Symyx Assay Explorer® or Condosseo® from GeneData.

T1 sequence (P49327 whole entry): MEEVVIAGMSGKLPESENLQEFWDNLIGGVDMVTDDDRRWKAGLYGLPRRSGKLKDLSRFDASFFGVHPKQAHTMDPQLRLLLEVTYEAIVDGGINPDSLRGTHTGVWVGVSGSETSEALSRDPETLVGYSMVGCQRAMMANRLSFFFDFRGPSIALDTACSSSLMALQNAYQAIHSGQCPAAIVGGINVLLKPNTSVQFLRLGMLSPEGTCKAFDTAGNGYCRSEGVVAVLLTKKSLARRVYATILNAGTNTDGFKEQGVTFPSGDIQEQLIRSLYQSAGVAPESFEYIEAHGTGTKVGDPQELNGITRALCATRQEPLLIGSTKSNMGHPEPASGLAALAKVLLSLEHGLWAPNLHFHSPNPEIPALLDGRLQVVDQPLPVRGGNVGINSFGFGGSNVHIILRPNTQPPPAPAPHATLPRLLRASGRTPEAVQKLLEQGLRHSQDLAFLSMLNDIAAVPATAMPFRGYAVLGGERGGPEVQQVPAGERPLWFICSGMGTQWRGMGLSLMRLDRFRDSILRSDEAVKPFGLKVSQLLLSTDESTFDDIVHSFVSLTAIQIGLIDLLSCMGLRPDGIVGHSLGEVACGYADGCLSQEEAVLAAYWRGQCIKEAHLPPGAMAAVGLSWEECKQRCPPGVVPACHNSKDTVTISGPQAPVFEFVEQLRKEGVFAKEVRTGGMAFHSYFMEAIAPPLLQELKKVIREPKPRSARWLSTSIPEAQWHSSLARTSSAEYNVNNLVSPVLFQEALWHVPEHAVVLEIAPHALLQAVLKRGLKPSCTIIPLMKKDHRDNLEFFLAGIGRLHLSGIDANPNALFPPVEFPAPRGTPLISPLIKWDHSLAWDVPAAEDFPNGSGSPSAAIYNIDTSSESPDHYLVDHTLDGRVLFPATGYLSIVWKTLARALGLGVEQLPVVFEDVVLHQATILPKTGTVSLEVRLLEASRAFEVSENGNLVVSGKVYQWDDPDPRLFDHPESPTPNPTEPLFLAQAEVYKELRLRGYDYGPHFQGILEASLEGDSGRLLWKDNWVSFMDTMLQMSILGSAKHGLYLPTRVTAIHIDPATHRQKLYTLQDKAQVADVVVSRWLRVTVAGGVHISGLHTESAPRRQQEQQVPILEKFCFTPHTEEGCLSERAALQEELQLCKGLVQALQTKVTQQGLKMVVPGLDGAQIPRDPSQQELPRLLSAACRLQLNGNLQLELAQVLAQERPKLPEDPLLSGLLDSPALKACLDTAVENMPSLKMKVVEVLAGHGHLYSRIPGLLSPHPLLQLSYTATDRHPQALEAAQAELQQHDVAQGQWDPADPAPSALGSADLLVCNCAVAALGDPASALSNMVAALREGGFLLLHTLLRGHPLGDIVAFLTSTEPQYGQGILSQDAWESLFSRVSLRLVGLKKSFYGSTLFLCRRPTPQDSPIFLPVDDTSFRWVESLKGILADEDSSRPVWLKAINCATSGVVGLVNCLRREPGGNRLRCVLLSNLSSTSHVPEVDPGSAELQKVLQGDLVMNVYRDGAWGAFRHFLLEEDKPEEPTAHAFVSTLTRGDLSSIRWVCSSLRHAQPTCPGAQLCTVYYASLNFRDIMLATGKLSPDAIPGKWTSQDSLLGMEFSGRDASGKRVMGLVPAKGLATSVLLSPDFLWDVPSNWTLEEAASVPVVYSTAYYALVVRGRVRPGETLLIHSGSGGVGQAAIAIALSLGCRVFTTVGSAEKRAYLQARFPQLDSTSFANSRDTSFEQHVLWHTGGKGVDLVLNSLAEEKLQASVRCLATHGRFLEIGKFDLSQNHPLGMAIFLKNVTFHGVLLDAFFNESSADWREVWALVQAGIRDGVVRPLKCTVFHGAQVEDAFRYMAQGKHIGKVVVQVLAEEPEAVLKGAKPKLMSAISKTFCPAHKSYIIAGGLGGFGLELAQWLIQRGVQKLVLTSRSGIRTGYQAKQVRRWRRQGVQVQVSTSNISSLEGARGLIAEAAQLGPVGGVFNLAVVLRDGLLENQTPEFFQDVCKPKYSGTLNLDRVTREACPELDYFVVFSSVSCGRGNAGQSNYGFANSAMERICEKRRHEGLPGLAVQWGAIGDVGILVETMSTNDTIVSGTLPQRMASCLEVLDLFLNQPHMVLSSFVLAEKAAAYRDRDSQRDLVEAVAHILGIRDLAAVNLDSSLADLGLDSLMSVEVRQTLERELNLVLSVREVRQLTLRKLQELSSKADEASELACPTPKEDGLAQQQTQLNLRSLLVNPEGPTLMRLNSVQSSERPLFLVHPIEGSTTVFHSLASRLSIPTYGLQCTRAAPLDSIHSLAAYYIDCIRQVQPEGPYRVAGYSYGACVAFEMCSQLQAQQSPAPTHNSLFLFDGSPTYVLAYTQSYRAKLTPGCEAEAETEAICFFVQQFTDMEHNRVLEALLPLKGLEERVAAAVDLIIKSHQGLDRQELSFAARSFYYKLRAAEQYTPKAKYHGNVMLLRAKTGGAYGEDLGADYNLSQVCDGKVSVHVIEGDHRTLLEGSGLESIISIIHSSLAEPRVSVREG

IC50 [nM] | SMILES
< 300 | CCC(=O)N[C@H]1CC[C@@H](n2cnnc2-c2ccc(-c3cc4cn[nH]c4cc3C)cc2)C1 [Compound A98, N-((1S,3R)-3-{3-[4-(6-Methyl-1H-indazol-5-yl)-phenyl]-[1,2,4]triazol-4-yl}-cyclopentyl)-propionamide]
< 300 | CCC(=O)N[C@H]1CC[C@@H](n2nncc2-c2ccc(-c3ccc(C)cc3C)cc2)C1 [Compound A89, N-{(1S,3R)-3-[5-(2′,4′-Dimethyl-biphenyl-4-yl)-[1,2,3]triazol-1-yl]-cyclopentyl}-propionamide]
< 300 | CCC(=O)N[C@H]1CC[C@@H](n2nncc2-c2ccc(-c3ccc4[nH]ccc4n3)cc2)C1 [Compound A113, N-((1S,3R)-3-{5-[4-(1H-Pyrrolo[3,2-b]pyridin-5-yl)-phenyl]-[1,2,3]triazol-1-yl}-cyclopentyl)-propionamide]
< 300 | CC1(NC(=O)[C@H]2CC[C@@H](n3cncc3-c3ccc(-c4cccc5[nH]ncc45)cc3)C2)CC1 [Compound A11, (1S,3R)-3-{5-[4-(1H-indazol-4-yl)-phenyl]-imidazol-1-yl}-cyclopentanecarboxylic acid (1-methyl-cyclopropyl)-amide]
< 300 | CC1(NC(=O)[C@H]2CC[C@@H](n3cncc3-c3ccc(-c4nc5ccccc5o4)cc3)C2)CC1 [Compound A4, (1S,3R)-3-[5-(4-benzoxazol-2-yl-phenyl)-imidazol-1-yl]-cyclopentanecarboxylic acid (1-methyl-cyclopropyl)-amide]
300 to 3000 | CCC(=O)N[C@H]1CC[C@@H](n2nncc2-c2ccc(-c3ccc4ccn(C)c4c3)nc2)C1 [Compound A122, N-((1S,3R)-3-{5-[6-(1-Methyl-1H-indol-6-yl)-pyridin-3-yl]-[1,2,3]triazol-1-yl}-cyclopentyl)-propionamide]
< 300 | CCC(=O)N[C@H]1CC[C@@H](n2nncc2-c2ccc(-c3ccc4cnn(C)c4c3)cc2)C1 [Compound A63, N-((1S,3R)-3-{5-[4-(1-Methyl-1H-indazol-6-yl)-phenyl]-[1,2,3]triazol-1-yl}-cyclopentyl)-propionamide]
300 to 3000 | O=C(N[C@H]1CC[C@@H](n2nncc2-c2ccc(-c3nc4ccccc4o3)cc2)C1)[C@H]1CCCO1 [Compound A68, (R)-Tetrahydro-furan-2-carboxylic acid {(1S,3R)-3-[5-(4-benzooxazol-2-yl-phenyl)-[1,2,3]triazol-1-yl]-cyclopentyl}-amide]
< 300 | CCC(=O)N[C@H]1CC[C@@H](n2cncc2-c2ccc(-c3ccc(Cl)cc3)cc2)C1 [Compound A21, N-{(1S,3R)-3-[5-(4′-chloro-biphenyl-4-yl)-imidazol-1-yl]-cyclopentyl}-propionamide]
300 to 3000 | CC1(NC(=O)[C@H]2CC[C@@H](n3cncc3-c3ccc(-c4cc5cc(F)ccc5[nH]4)cc3)C2)CC1 [Compound A8, (1S,3R)-3-{5-[4-(5-fluoro-1H-indol-2-yl)-phenyl]-imidazol-1-yl}-cyclopentanecarboxylic acid (1-methyl-cyclopropyl)-amide]
300 to 3000 | CCC(=O)N[C@H]1CC[C@@H](n2nncc2-c2ccc(-c3ccc4nccn4c3)nc2)C1 [Compound A109, N-{(1S,3R)-3-[5-(6-Imidazo[1,2-a]pyridin-6-yl-pyridin-3-yl)-[1,2,3]triazol-1-yl]-cyclopentyl}-propionamide]
< 300 | CCNC(=O)[C@H]1CC[C@@H](n2nncc2-c2ccc(-c3ccc4cc[nH]c4c3)cc2)C1 [Compound A16, (1S,3R)-3-{5-[4-(1H-indol-6-yl)-phenyl]-[1,2,3]triazol-1-yl}-cyclopentanecarboxylic acid ethylamide]
< 300 | CCC(=O)N[C@H]1CC[C@@H](n2nncc2-c2ccc(-c3ccc4cn[nH]c4c3)cc2)C1 [Compound A72, N-((1S,3R)-3-{5-[4-(1H-Indazol-6-yl)-phenyl]-[1,2,3]triazol-1-yl}-cyclopentyl)-propionamide]
< 300 | CC1(NC(=O)[C@H]2CC[C@@H](n3cncc3-c3ccc(-c4ccc5[nH]ccc5c4)cc3)C2)CC1 [Compound A10, (1S,3R)-3-{5-[4-(1H-indol-5-yl)-phenyl]-imidazol-1-yl}-cyclopentanecarboxylic acid (1-methyl-cyclopropyl)-amide]
< 300 | CCC(=O)N[C@H]1CC[C@@H](n2nncc2-c2ccc(-c3ccc4[nH]ccc4n3)cn2)C1 [Compound A118, N-((1S,3R)-3-{5-[5-(1H-Pyrrolo[3,2-b]pyridin-5-yl)-pyridin-2-yl]-[1,2,3]triazol-1-yl}-cyclopentyl)-propionamide]
< 300 | CCC(=O)N[C@H]1CC[C@@H](n2nncc2-c2ccc(-c3cc4cc[nH]c4cc3F)c(F)c2)C1 [Compound A120, N-((1S,3R)-3-{5-[3-Fluoro-4-(6-fluoro-1H-indol-5-yl)-phenyl]-[1,2,3]triazol-1-yl}-cyclopentyl)-propionamide]
300 to 3000 | CC1(NC(=O)[C@H]2CC[C@@H](n3cncc3-c3ccc(-c4ccc(C#N)cc4)cc3)C2)CC1 [Compound A12, (1S,3R)-3-[5-(4′-cyano-biphenyl-4-yl)-imidazol-1-yl]-cyclopentanecarboxylic acid (1-methyl-cyclopropyl)-amide]
300 to 3000 | O=C(CC1CCCC1)N[C@H]1CC[C@@H](n2nncc2-c2ccc(-c3nc4ccccc4o3)cc2)C1 [Compound A67, N-{(1S,3R)-3-[5-(4-Benzoxazol-2-yl-phenyl)-[1,2,3]triazol-1-yl]-cyclopentyl}-2-cyclopentyl-acetamide]
< 300 | CCC(=O)N[C@H]1CC[C@@H](n2nncc2-c2ccc(-c3ccc4[nH]ccc4c3)cc2)C1 [Compound A27, N-((1S,3R)-3-{5-[4-(1H-indol-5-yl)-phenyl]-[1,2,3]triazol-1-yl}-cyclopentyl)-propionamide]
< 300 | CCC(=O)N[C@H]1CC[C@@H](n2cnnc2-c2ccc(-c3ccc4ncsc4c3)cc2)C1 [Compound A43, N-{(1S,3R)-3-[3-(4-benzothiazol-6-yl-phenyl)-[1,2,4]triazol-4-yl]-cyclopentyl}-propionamide]
< 300 | CCNC(=O)[C@H]1CC[C@@H](n2cnnc2-c2ccc(-c3ccc(C#N)cc3)cc2)C1 [Compound A32, (1S,3R)-3-[3-(4′-cyano-biphenyl-4-yl)-[1,2,4]triazol-4-yl]-cyclopentanecarboxylic acid ethylamide]
< 300 | CCNC(=O)[C@H]1CC[C@@H](n2nncc2-c2ccc(-c3ccc(C#N)cc3F)cc2)C1 [Compound A106, (1S,3R)-3-[5-(4′-Cyano-2′-fluoro-biphenyl-4-yl)-[1,2,3]triazol-1-yl]-cyclopentanecarboxylic acid ethylamide]
< 300 | O=C(N[C@H]1CC[C@@H](n2nncc2-c2ccc(-c3nc4ccccc4o3)cc2)C1)C1CC1 [Compound A66, Cyclopropanecarboxylic acid {(1S,3R)-3-[5-(4-benzooxazol-2-yl-phenyl)-[1,2,3]triazol-1-yl]-cyclopentyl}-amide]
< 300 | CCC(=O)N[C@H]1CC[C@@H](n2nncc2-c2ccc(-c3ccc4c(c3)NC(=O)C4)cc2)C1 [Compound A91, N-((1S,3R)-3-{5-[4-(2-Oxo-2,3-dihydro-1H-indol-6-yl)-phenyl]-[1,2,3]triazol-1-yl}-cyclopentyl)-propionamide]
< 300 | CCC(=O)N[C@H]1CC[C@@H](n2nncc2-c2ccc(-c3ccc4[nH]ccc4c3)cn2)C1 [Compound A117, N-((1S,3R)-3-{5-[5-(1H-Indol-5-yl)-pyridin-2-yl]-[1,2,3]triazol-1-yl}-cyclopentyl)-propionamide]
< 300 | CCC(=O)N[C@H]1CC[C@@H](n2nncc2-c2ccc(-c3ccc(C)cc3)cc2)C1 [Compound A84, N-{(1S,3R)-3-[5-(4′-Methyl-biphenyl-4-yl)-[1,2,3]triazol-1-yl]-cyclopentyl}-propionamide]
< 300 | CCC(=O)N[C@H]1CC[C@@H](n2nncc2-c2ccc(-c3ccc4c(c3)CC(=O)N4)cc2)C1 [Compound A79, N-((1S,3R)-3-{5-[4-(2-Oxo-2,3-dihydro-1H-indol-5-yl)-phenyl]-[1,2,3]triazol-1-yl}-cyclopentyl)-propionamide]
< 300 | CCC(=O)N[C@H]1CC[C@@H](n2cnnc2-c2ccc(-c3ccc(Cl)c(F)c3)cc2)C1 [Compound A95, N-{(1S,3R)-3-[3-(4′-Chloro-3′-fluoro-biphenyl-4-yl)[1,2,4]triazol-4-yl]-cyclopentyl}-propionamide]
< 300 | CC1(NC(=O)[C@H]2CC[C@@H](n3cncc3-c3ccc(-c4ccc5cc[nH]c5c4)cc3)C2)CC1 [Compound A7, (1S,3R)-3-{5-[4-(1H-indol-6-yl)-phenyl]-imidazol-1-yl}-cyclopentanecarboxylic acid (1-methyl-cyclopropyl)-amide]
